Measured values published in the SangsterLogP compilation.

Assay: method code SF-AS, from PMID: 6637502
Conditions: pH 5.0

logD	Structure (SMILES)
0.4	Cc1cnc2n(c1=O)CCCC2
1.98	O=c1c2ccccc2nc2n1CCCCC2
2.44	Cc1cccn2c(=O)c3c(nc12)CCCC3
0.82	Cc1cnc2n(c1=O)C(C)CCC2 (configuration not stated)
1.86	Cc1ccn2c(=O)c3c(nc2c1)CCCC3
0.61	Cc1ccc2nccc(=O)n2c1
1.25	O=c1c2c(nc3n1CCCCC3)CCC2
1.63	O=c1c2c(nc3ccccn13)CCCC2
1.76	CC1CCCn2c1nc1c(c2=O)CCCC1 (configuration not stated)
2.18	O=c1c2c(nc3n1CCCCC3)CCCCC2
1.67	CC1CCCc2nc3c(c(=O)n21)CCCC3 (configuration not stated)
1.77	Cc1cccc2nc3c(c(=O)n12)CCC3
0.79	Cc1cccn2c(=O)ccnc12
1.65	Cc1ccn2c(=O)c3c(nc2c1)CCC3
0.22	O=c1c2c(nc3n1CCC3)CCC2
2.07	Cc1ccc2nc3c(c(=O)n2c1)CCCC3
1.7	CC1CCc2nc3c(c(=O)n2C1)CCCC3 (configuration not stated)
1.61	Cc1ccc2nc3c(c(=O)n2c1)CCC3
1.91	Cc1cccc2nc3c(c(=O)n12)CCCC3
0.6	Cc1nc2n(c(=O)c1C)CCCC2
0.56	Cc1ccn2c(=O)ccnc2c1
1.67	CC1CCn2c(nc3c(c2=O)CCCC3)C1 (configuration not stated)
